Measurements: patent US8304422B2, “Compositions and methods for inhibition of the JAK pathway” (Rigel Pharmaceuticals, Inc., priority 2007, dated 2012)

Key:
[1] = system: Ramos B-Cell Line Stimulated with IL-4; test: Assay for Ramos B-Cell Line Stimulated with IL-4 (CD23 upregulation, FACS; Example 2); type: cell-based; settings: human Ramos B cells, IL-4 50 units/mL for 20-24 hours, anti-CD23-PE
From the text: One means of assaying for such inhibition is detection of the effect of the 2,4-pyrimidinediamine compounds on the upregulation of downstream gene products. In the Ramos/IL4 assay, B-cells are stimulated with the cytokine Interleukin-4 (IL-4) leading to the activation of the JAK/Stat pathway through phosphorylation of the JAK family kinases, JAK1 and JAK3, which in turn phosphorylate and activate the transcription factor Stat-6. […] To study the effect of inhibitors (e.g., the 2,4-substituted pyrimindinediamine compounds described herein) on the JAK1 and JAK3 kinases, human Ramos B cells are stimulated with human IL-4. 20 to 24 hours post stimulation, cells are stained for upregulation of CD23 and analyzed using flow cytometry (FACS). […] An exemplary assay of this type is described in greater detail in Example 2.
B-cells stimulated with cytokine Interleukin-4 (IL-4) activate the JAK/Stat pathway through phosphorylation of the JAK family kinases, JAK-1 and JAK-3, which in turn phosphorylate and activate the transcription factor Stat-6. […] To study the effect of inhibitors on the JAK family kinases, human Ramos B cells are stimulated with human IL-4.
The Ramos B-cell line was acquired from ATCC (ATCC Catalog No. CRL-1596). The cells were cultured in RPMI 1640 (Cellgro, MediaTech, Inc., Herndon, Va., Cat No. 10-040-CM) with 10% fetal bovine serum (FBS), heat inactivated (JRH Biosciences, Inc, Lenexa, Kans., Cat No. 12106-500M) according to ATCC propagation protocol. Cells were maintained at a density of 3.5×10^5. The day before the experiment, Ramos B-cells were diluted to 3.5×10^5 cells/mL to ensure that they were in a logarithmic growth phase.
Cells were spun down and suspended in RPMI with 5% serum. 5×10^4 cells were used per point in a 96-well tissue culture plate. Cells were pre-incubated with compound or DMSO (Sigma-Aldrich, St. Louis, Mo., Cat No. D2650) vehicle control for 1 hour in a 37° C. incubator.
Cells were then stimulated with IL-4 (Peprotech Inc., Rocky Hill, N.J., Cat No. 200-04) for a final concentration of 50 units/mL for 20-24 hours. Cells were then spun down and stained with anti-CD23-PE (BD Pharmingen, San Diego, Calif., Cat No. 555711) and analyzed by FACS. Detection was performed using a BD LSR I System Flow Cytometer, purchased from Becton Dickinson Biosciences of San Jose, Calif.

[2] = system: BaF3 V617F cells; UKE-1; test: Proliferation Assay (Cell Titer-Glo; Example 7); type: cell-based; settings: proliferation 72 hours, inhibit JAK2 activity, cell line (BaF3 V617F or UKE-1) not stated
How it was run: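 Proliferation IC50s reflect 72 h compound exposure at 37 °C, read by Cell Titer-Glo luminescence. Compound was serially diluted 3-fold from a 5 mM DMSO stock and added as a 2× solution; BaF3 V617F cells were grown in RPMI/10% FBS, UKE-1 in Iscove's DMEM with FBS, equine serum and hydrocortisone.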

Row | SMILES | IC50 [1] [nM] | IC50 [2] [nM]
1 | Cc1cnc(Nc2ccc(C3CCN(C)CC3)cc2)nc1Nc1ccc2c(c1)C(NS(C)(=O)=O)CC2 (racemic) [V-2, (+/−)-5-Methyl-N2-[4-(1-methyl-4-piperidinyl)pheny]-N4-[1-(methylsulfonyl)aminoindan-6-yl]-2,4-pyrimidinediamine] | 1220 | 807
2 | C#CCNS(=O)(=O)c1ccc(Nc2nc(Nc3cc(C)c(OC)c(C)c3)ncc2F)cc1 [I-5, N2-(3,5-Dimethyl-4-methoxyphenyl)-5-fluoro-N4-[4-(prop-2-ynylaminosulfonyl)phenyl]-2,4-pyrimidinediamine] | 31.6 | –
3 | CNC(=O)COc1cccc(Nc2ncc(N)c(Nc3ccc(S(N)(=O)=O)cc3)n2)c1 [I-6, 5-Amino-N4-(4-aminosulfonylphenyl)-N2-[3-(N-methylamino)carbonylmethyleneoxyphenyl]-2,4-pyrimidinediamine] | 8800 | –
4 | CNC(=O)COc1cccc(Nc2ncc(N)c(Nc3cccc(S(N)(=O)=O)c3)n2)c1 [I-7, 5-Amino-N4-(3-aminosulfonylphenyl)-N2-[3-(N-methylamino)carbonylmethyleneoxyphenyl]-2,4-pyrimidinediamine] | 5820 | –
5 | COc1ccc(N(C)c2ncc(N)c(Nc3ccc(S(N)(=O)=O)cc3)n2)cc1 [I-9, 5-Amino-N4-(4-aminosulfonylphenyl)-N2-(4-methoxyphenyl)-N2-methyl-2,4-pyrimidinediamine] | 99600 | –
6 | COc1cccc(N(C)c2ncc(N)c(Nc3cccc(S(N)(=O)=O)c3)n2)c1 [I-10, 5-Amino-N4-(3-aminosulfonylphenyl)-N2-(3-methoxyphenyl)-N2-methyl-2,4-pyrimidinediamine] | 64200 | –
7 | COc1cccc(N(C)c2ncc(N)c(Nc3ccc(S(N)(=O)=O)cc3)n2)c1 [I-11, 5-Amino-N4-(4-aminosulfonylphenyl)-N2-(3-methoxyphenyl)-N2-methyl-2,4-pyrimidinediamine] | 15900 | –
8 | NS(=O)(=O)c1cccc(Nc2nc(Nc3ccc(OCc4ccccn4)cc3)ncc2C(F)(F)F)c1 [I-12, N4-(3-Aminosulfonylphenyl)-N2-[4-(2-pyridinyl)methyleneoxyphenyl]-5-trifluoromethyl-2,4-pyrimidinediamine] | 1110 | –
9 | O=S(=O)(NC1CC1)c1ccc(Nc2nc(Nc3ccc(OCc4cccnc4)cc3)ncc2C(F)(F)F)cc1 [I-13, N4-[4-N—(Cyclopropyl)aminosulfonylphenyl]-N2-[4-(3-pyridinyl)methyleneoxyphenyl]-5-trifluoromethyl-2,4-pyrimidinediamine] | 549 | –
10 | COc1cc(Nc2ncc(F)c(Nc3ccc(CNS(=O)(=O)C4CC4)cc3)n2)cc(OC)c1OC [II-1, N4-(4-cyclopropylsulfonylaminomethyl)phenyl-5-fluoro-N2-(3,4,5-trimethoxy)phenyl-2,4-pyrimidinediamine] | 123 | 405
11 | O=S(=O)(NCc1ccc(Nc2nc(Nc3ccc(F)c(F)c3)ncc2F)cc1)C1CC1 [II-2, N4-(4-cyclopropylsulfonylaminomethyl)phenyl-N2-(3,4-difluoro)phenyl-5-fluoro-2,4-pyrimidinediamine] | 614 | –
12 | COc1ccc(Nc2ncc(F)c(Nc3ccc(CNS(=O)(=O)C4CC4)cc3)n2)cc1Cl [II-3, N2-(3-chloro-4-methoxy)phenyl-N4-(4-cyclopropylsulfonylaminomethyl)phenyl-5-fluoro-2,4-pyrimidinediamine] | 116 | –
13 | Cc1cc(C)cc(Nc2ncc(F)c(Nc3ccc(CNS(=O)(=O)C4CC4)cc3)n2)c1 [II-4, N4-(4-cyclopropylsulfonylaminomethyl)phenyl-N2-(3,5-dimethyl)phenyl-5-fluoro-2,4-pyrimidinediamine] | 88 | 3400
14 | N#Cc1ccc(Nc2ncc(F)c(Nc3ccc(CNS(=O)(=O)C4CC4)cc3)n2)cc1Cl [II-5, N2-(3-chloro-4-cyano)phenyl-N4-(4-cyclopropylsulfonylaminomethyl)phenyl-5-fluoro-2,4-pyrimidinediamine] | 364 | 6060
15 | Cc1cnc(Nc2cccc(C(N)=O)c2)nc1Nc1ccc(CNS(=O)(=O)C2CC2)c(Cl)c1 [II-18, N2-(3-aminocarbonyl)phenyl-N4-(3-chloro-4-cyclopropylsulfonylaminomethyl)phenyl-5-methyl-2,4-pyrimidinediamine] | 279 | –
16 | Cc1cnc(Nc2cccc(C(N)=O)c2)nc1Nc1ccc(CN(C)S(=O)(=O)C2CC2)cc1 [II-20, N2-(3-aminocarbonyl)phenyl-N4-[4-(N-cyclopropylsulfonyl-N-methyl)aminomethyl]phenyl-5-methyl-2,4-pyrimidinediamine] | 505 | –
17 | Cc1cnc(Nc2cccc(C(N)=O)c2)nc1Nc1cccc(CNS(=O)(=O)C2CC2)c1 [II-24, N2-(3-aminocarbonyl)phenyl-N4-(3-cyclopropylsulfonylaminomethyl)phenyl-5-methyl-2,4-pyrimidinediamine] | 280 | –
18 | Cc1cnc(Nc2ccc(C#N)cc2)nc1Nc1ccc(CN(C)S(=O)(=O)C2CC2)cc1 [II-27, N2-(4-cyano)phenyl-N4-[4-(N-cyclopropylsulfonyl-N-methyl)aminomethyl]phenyl-5-methyl-2,4-pyrimidinediamine] | 89200 | –
19 | Cc1cnc(Nc2ccc3[nH]cnc3c2)nc1Nc1ccc(CNS(=O)(=O)C2CC2)cc1 [IV-1, N2-(benzoimidazol-5-yl)-N4-(4-cyclopropylsulfonylaminomethyl)phenyl-5-methyl-2,4-pyrimidinediamine] | 74.7 | –
20 | Cc1cnc(Nc2ccc3[nH]c(C(F)(F)F)nc3c2)nc1Nc1ccc(CNS(=O)(=O)C2CC2)cc1 [IV-2, N4-(4-cyclopropylsulfonylaminomethyl)phenyl-5-methyl-N2-(2-trifluoromethylbenzoimidazol-5-yl)-2,4-pyrimidinediamine] | 44 | –
21 | Cc1cnc(Nc2ccc3[nH]c(-c4cccnc4)nc3c2)nc1Nc1ccc(CNS(=O)(=O)C2CC2)cc1 [IV-3, N4-(4-cyclopropylsulfonylaminomethyl)phenyl-5-methyl-N2-[2-(pyridin-3-yl)benzoimidazol-5-yl]-2,4-pyrimidinediamine] | 178 | –
22 | Cc1cnc(Nc2ccc3[nH]c(C(C)(C)C)nc3c2)nc1Nc1ccc(CNS(=O)(=O)C2CC2)cc1 [IV-4, N2-(2-tert-butylbenzoimidazol-5-yl)-N4-(4-cyclopropylsulfonylaminomethyl)phenyl-5-methyl-2,4-pyrimidinediamine] | 127 | –
23 | Cc1cnc(Nc2ccc3[nH]c(-c4cccs4)nc3c2)nc1Nc1ccc(CNS(=O)(=O)C2CC2)cc1 [IV-5, N4-(4-cyclopropylsulfonylaminomethyl)phenyl-5-methyl-N2-[2-(thien-2-yl)benzoimidazol-5-yl]-2,4-pyrimidinediamine] | 87.3 | –
24 | Cc1cnc(Nc2ccc3[nH]c(CN4CCOCC4)nc3c2)nc1Nc1ccc(CNS(=O)(=O)C2CC2)cc1 [IV-6, N4-(4-cyclopropylsulfonylaminomethyl)phenyl-5-methyl-N2-[2-(morpholin-4-yl)methylbenzoimidazol-5-yl]-2,4-pyrimidinediamine] | 207 | –
25 | Cc1cnc(Nc2ccc3c(c2)ncn3CCO)nc1Nc1ccc(CNS(=O)(=O)C2CC2)cc1 [IV-8, N4-(4-cyclopropylsulfonylaminomethyl)phenyl-N2-[1-(2-hydroxyethyl)benzoimidazol-5-yl]-5-methyl-2,4-pyrimidinediamine] | 257 | –
26 | CS(=O)(=O)N1CCc2cc(Nc3nc(Nc4ccc5nc(C(F)(F)F)[nH]c5c4)ncc3F)ccc21 [VIII-4, 5-Fluoro-N4-[(1-methylsulfonyl)indolin-5-yl]-N2-(2-trifluoromethylbenzimidazol-5-yl)-2,4-pyrimidinediamine] | 242 | –
27 | Cc1cc(Nc2ncc(F)c(Nc3ccc4c(c3)CCN4S(C)(=O)=O)n2)ccc1N1CCN(C)CC1 [VIII-5] | 70.9 | –
28 | Cc1nc2ccc(Nc3ncc(F)c(Nc4ccc5c(c4)CCN5S(C)(=O)=O)n3)cc2[nH]1 [VIII-6, 5-Fluoro-N4-[(1-methylsulfonyl)indolin-5-yl]-N2-(2-methylbenzimidazol-5-yl)-2,4-pyrimidinediamine] | 349 | –
29 | Nc1cnc(Nc2ccc3cn[nH]c3c2)nc1Nc1cccc(S(N)(=O)=O)c1 [VIII-8, 5-Amino-N4-(3-aminosulfonylphenyl)-N2-(indazoline-6-yl)-2,4-pyrimidinediamine] | 5110 | –
